Tests used:
[1] = target: E. coli β-glucuronidase (Escherichia coli, UniProt P05804); assay: Hydrolysis of glucuronides by E. coli β-glucuronidase; type: biochemical; conditions: pH 6.8; for Hydrolysis of Glucuronides: E. coli enzyme, initial rate, enzyme diluted so that PGA rates are equivalent
[2] = target: T1, bovine liver β-glucuronidase (Bos taurus, UniProt A3KMY8); assay: Hydrolysis of glucuronides by bovine liver β-glucuronidase; type: biochemical; conditions: bovine liver enzyme, pH 5.0; initial rate; enzyme diluted so that PGA rates are equivalent
T1 sequence (A3KMY8 24-652): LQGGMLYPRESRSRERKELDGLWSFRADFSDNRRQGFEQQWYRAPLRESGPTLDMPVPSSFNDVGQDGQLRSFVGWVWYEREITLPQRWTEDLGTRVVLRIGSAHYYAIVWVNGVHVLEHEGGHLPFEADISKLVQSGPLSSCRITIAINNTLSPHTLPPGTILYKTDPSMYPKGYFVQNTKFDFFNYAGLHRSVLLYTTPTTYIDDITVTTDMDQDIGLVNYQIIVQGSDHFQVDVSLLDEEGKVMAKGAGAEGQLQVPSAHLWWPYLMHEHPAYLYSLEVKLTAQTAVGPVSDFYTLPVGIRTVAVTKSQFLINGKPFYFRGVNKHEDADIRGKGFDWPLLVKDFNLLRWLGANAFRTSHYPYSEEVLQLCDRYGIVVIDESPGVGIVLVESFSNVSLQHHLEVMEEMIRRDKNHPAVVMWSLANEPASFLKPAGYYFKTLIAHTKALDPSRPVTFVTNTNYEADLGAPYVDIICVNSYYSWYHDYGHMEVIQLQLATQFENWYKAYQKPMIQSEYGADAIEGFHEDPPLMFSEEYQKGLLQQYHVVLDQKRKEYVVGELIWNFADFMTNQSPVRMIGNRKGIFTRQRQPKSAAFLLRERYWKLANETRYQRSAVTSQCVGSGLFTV

[3] = target: T2, human sweat β-glucuronidase (Homo sapiens, UniProt P08236); assay: Hydrolysis of model glucuronides by human sweat glucuronidase; type: biochemical; conditions: for Hydrolysis of Glucuronides: dialyzed human sweat, initial rate, enzyme diluted so that PGA rates are equivalent
T2 sequence (P08236 23-651): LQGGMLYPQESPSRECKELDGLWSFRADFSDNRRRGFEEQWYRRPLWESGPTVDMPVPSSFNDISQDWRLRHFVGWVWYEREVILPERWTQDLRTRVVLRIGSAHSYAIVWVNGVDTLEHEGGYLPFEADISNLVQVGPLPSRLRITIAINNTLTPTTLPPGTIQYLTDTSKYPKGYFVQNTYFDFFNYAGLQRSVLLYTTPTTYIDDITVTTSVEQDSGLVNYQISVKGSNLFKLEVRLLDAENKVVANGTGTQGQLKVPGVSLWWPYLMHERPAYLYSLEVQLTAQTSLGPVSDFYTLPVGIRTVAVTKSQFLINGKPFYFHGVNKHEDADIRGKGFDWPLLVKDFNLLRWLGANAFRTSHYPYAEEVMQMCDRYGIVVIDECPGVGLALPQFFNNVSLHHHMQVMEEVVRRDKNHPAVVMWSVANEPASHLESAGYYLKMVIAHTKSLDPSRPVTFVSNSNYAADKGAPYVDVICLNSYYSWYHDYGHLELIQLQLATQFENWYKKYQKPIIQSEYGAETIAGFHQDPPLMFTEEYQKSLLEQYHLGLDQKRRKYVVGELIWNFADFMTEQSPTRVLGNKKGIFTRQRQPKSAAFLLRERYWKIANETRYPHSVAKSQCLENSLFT
Description: Sweat was obtained from human volunteers by collection from the axilla during high temperature (>41° C.) in a sauna. The sweat was clarified by centrifugation at 20,000 g for 30 min. This clarified sweat was then either utilized directly in hydrolysis studies or dialyzed against 100 mM NaCl, 50 mM sodium acetate, pH 5.0 prior to use. […] Most of the data presented herein was generated with dialyzed preparations.
β-glucuronidase activity was assayed in the sweat by hydrolysis of phenolphthalein glucuronide. Briefly, this assay was carried out as follows: to an aliquot of undialyzed sweat was added an equal volume of buffer comprising 100 mM NaCl, 100 mM sodium acetate, pH 5.0 (this step was unnecessary when assaying dialyzed sweat) followed by 10 μl of a 100 mg/ml phenolphthalein glucuronide solution (Sigma Chemical, St. Louis, Mo.). The reaction mixture was then incubated at 37° C. After 30 min an aliquot of the reaction mixture was added to a five-fold excess of a 0.2 M glycine buffer, pH 10.4 and the absorbance wa determined at 540 nm. The activity was determined by comparison to a known amount of E. coli β-glucuronidase (Sigma, Type VII) run under standard conditions.
A variety of glucuronides were synthesized and tested for their ability to be hydrolyzed by human sweat glucuronidase. […] These hydrolysis reactions were all carried out under similar conditions, and the extent of hydrolysis was determined at the various time points by HPLC analysis of the reaction mixture.
Generally, dialyzed preparations of sweat were used for the reasons discussed earlier. […] A typical experiment was done by bringing the enzyme solution (50-100 U/ml) to 0.01 to 0.05% in the glucuronide to be tested. A zero time aliquot was withdrawn and stored frozen; the remaining reaction mixture was incubated at 37° C. Aliquots were taken at various time points for rate determinations. These aliquots were stored at -20° C. until analysis by HPLC.
High pressure liquid chromatography of the aliquots drawn from the hydrolysis reactions allowed the separation of the aglycon from the glucuronide in all cases. The nmoles released at any given time were calculated from the absorption at 254 nm and the known extinction coefficient of the compound. Rates are given as initial rates which are determined by plotting nmoles aglycon vs. time.

[4] = tested on: rabbit eye pupil; assay: Mydriasis assay (rabbit eye pupil diameter); type: in vivo; conditions: for Change in Pupil Diameter as a function of time: error ± 0.5 mm; for mydriatic potency compared to the parent drugs: compared to parent drugs tropicamide and scopolamine
Description: The rabbit eye pupil diameter was measured with a clear plastic ruler after exposing the eye to 50 W light at a distance of 6 in. Exposure to light contracts the pupil to approximately 3 mm diameter.
The addition of the compounds to be tested is done in a maximum volume of 150 μl, in 50 mM NaPO4, pH 6.8, 100 mM NaCl. The sample was applied in the upper corner of the eye and was allowed to completely cover the cornea after each addition. Pupil dilation was measured at 3 separate intervals following the procedure outlined above. Buffer controls were run in one eye and the anticholinergic in the other.

[5] = Solubility of aglycon in the enzymatic reaction mixture; type: physicochemical; conditions: aqueous tris hydrochloride reaction mixture
Description: Due to the low solubility of this compound, excess solid material is added to the reaction mixture so that a saturated solution of aglycon is maintained throughout the reaction. The glucuronide is isolated by HPLC with the reversed phase system described in Example 2. It is characterized by hydrolysis with excess E. coli β-glucuronidase (1000 U/ml, pH 6.8) (Sigma, Type […]) for 1 hr at 37° C. which quantitatively releases the aglycon as assayed by HPLC.
The glucuronide of scopolamine p-hydroxybenzoate is synthesized with uridine 5'-diphosphoglucuronic acid transferase by first removing all or substantially all of the esterase activity from liver microsomes. These esterases are removed since they will hydrolyze the aglycon. This operation can be done by washing the liver microsomes in a suitable buffer, as described herein, or by other equivalent washing means known to persons in this art. Advantageously, an esterase inhibitor can be used to supplement the washing of the microsomes. For example, a competitive inhibitor of the esterases such as lysine ethyl ester, and the like, or a suicide substrate such as phenylmethylsulfonyl fluoride, and the like, can be used. […] The glucuronide is characterized by hydrolysis with excess E. coli β-glucuronidase (100 U/ml, pH 6.8) (Sigma, Type VII) for 1 hr at 37° C. which quantitatively releases the aglycon as assayed by HPLC.

[6] = levels 100-fold greater than required to effect a strong mydriatic response with the aglycon

E. coli β-glucuronidase, sequence (P05804 whole entry): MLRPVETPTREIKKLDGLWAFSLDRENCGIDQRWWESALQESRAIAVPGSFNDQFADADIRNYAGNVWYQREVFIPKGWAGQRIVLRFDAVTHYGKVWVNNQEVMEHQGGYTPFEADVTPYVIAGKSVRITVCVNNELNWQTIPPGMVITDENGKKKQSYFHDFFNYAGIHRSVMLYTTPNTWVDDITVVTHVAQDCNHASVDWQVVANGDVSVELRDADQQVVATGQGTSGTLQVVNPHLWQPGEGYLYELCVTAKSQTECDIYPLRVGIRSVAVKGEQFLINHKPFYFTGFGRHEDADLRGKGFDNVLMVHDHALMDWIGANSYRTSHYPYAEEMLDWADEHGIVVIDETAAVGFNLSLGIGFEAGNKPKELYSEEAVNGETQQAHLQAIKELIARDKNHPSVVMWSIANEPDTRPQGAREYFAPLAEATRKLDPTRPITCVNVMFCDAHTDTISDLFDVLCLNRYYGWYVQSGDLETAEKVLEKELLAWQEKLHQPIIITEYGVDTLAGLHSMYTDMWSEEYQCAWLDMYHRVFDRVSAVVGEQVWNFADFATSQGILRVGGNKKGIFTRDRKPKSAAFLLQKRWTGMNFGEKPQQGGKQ

O=C1OC(c2ccc(O)cc2)(c2ccc(O[C@@H]3O[C@H](C(=O)O)[C@@H](O)[C@H](O)[C@H]3O)cc2)c2ccccc21 (stereo partly shown) [Phenolphthalein glucuronide, phenolphthalein glucuronide]
Hydrolysis of Glucuronides [1]: 200 nmoles/hour/100 units | Hydrolysis of Glucuronides [2]: 200 nmoles/hour/100 units | Hydrolysis of Glucuronides ([3]; pH 5.0): 200 nmoles/hour/100 units

CN1C2CC(OC(=O)C(COC3OC(C(=O)O)C(O)C(O)C3O)c3ccccc3)CC1C1OC12 [Scopolamine glucuronide, scopolamine O-β-D-glucuronide]
Hydrolysis of Glucuronides [1]: 60 nmoles/hour/100 units | Hydrolysis by E. coli enzyme (in words) [1]: lower, but significant, activity | Hydrolysis of Glucuronides [2]: 25 nmoles/hour/100 units | Hydrolysis of Glucuronides ([3]; pH 5.0): < 0.5 nmoles/hour/100 units | Hydrolysis by human sweat enzyme (in words) ([3]; pH 5.0): no scopolamine could be detected | Hydrolysis by human sweat enzyme (in words) ([3]; pH 6.8): no hydrolysis

CN1C2CC(OC(=O)C(COC(=O)c3ccc(OC4OC(C(=O)O)C(O)C(O)C4O)cc3)c3ccccc3)CC1C1OC12 [Scopolamine p-Hydroxybenzoy-O-β-D-Glucuronic Acid]
Hydrolysis of Glucuronides ([3]; pH 5.0): 40 nmoles/hour/100 units | Change in Pupil Diameter as a function of time ([4]; 11.4 ug applied, in 45 min): 0 mm | mydriatic response (in words) [4, 6]: No mydriatic response

CN1C2CC(OC(=O)C(COC(=O)c3ccc(O)cc3)c3ccccc3)CC1C1OC12 (stereo not shown) [Scopolamine p-hydroxybenzoate, Scopolamine p-Hydroxybenzoate]
mydriatic response (in words) ([4]; 0.1 μg): sufficient for a response | Change in Pupil Diameter as a function of time ([4]; 0.1 ug applied, in 15 min): 7 mm | mydriatic potency compared to the parent drugs [4]: potent mydriatic agents | solubility [5]: low

CN1[C@@H]2C[C@@H](OC(=O)[C@H](CO)c3ccccc3)C[C@H]1[C@@H]1O[C@@H]12 [Scopolamine]
mydriatic response (in words) ([4]; 0.6 μg): nonmydriatic | Change in Pupil Diameter as a function of time ([4]; 0.6 ug applied, in 15 min): 0 mm | Change in Pupil Diameter as a function of time ([4]; 6 ug applied, in 15 min): 6 mm | Change in Pupil Diameter as a function of time ([4]; 60 ug applied, in 10 min): 6 mm

COC(=O)C(CO[C@@H]1O[C@H](C(=O)O)[C@@H](O)[C@H](O)[C@H]1O)c1ccccc1 (stereo partly drawn) [Tropic acid methyl ester glucuronide, Tropic Acid Methyl Ester-O-β-D-Glucuronide]
Hydrolysis of Glucuronides ([3]; pH 5.0): 2.6 nmoles/hour/100 units

CCN(Cc1ccncc1)C(=O)C(CO[C@@H]1O[C@H](C(=O)O)[C@@H](O)[C@H](O)[C@H]1O)c1ccccc1 (stereo partly drawn) [Tropicamide glucuronide, tropicamide O-β-D-glucuronide]
Hydrolysis of Glucuronides [1]: > 150 nmoles/hour/100 units | Hydrolysis by E. coli enzyme (in words) [1]: rapidly hydrolyzes | Hydrolysis of Glucuronides [2]: 24 nmoles/hour/100 units | Hydrolysis of Glucuronides ([3]; pH 5.0): 1.6 nmoles/hour/100 units | Hydrolysis by human sweat enzyme (in words) ([3]; pH 5.0): Trace amounts | Hydrolysis by human sweat enzyme (in words) ([3]; pH 6.8): no hydrolysis | Change in Pupil Diameter as a function of time ([4]; 600 ug applied, in 30 min): 0 mm

CCN(Cc1ccncc1)C(=O)C(COC(=O)c1ccc(O[C@@H]2O[C@H](C(=O)O)[C@@H](O)[C@H](O)[C@H]2O)cc1)c1ccccc1 (stereo partly drawn) [Tropicamide p-Hydroxybenzoyl-O-β-D-Glucuronic Acid]
Hydrolysis of Glucuronides ([3]; pH 5.0): 36 nmoles/hour/100 units | Change in Pupil Diameter as a function of time ([4]; 600 ug applied, in 25 min): 0 mm | mydriatic response (in words) [4, 6]: No mydriatic response

CCN(Cc1ccncc1)C(=O)C(COC(=O)c1ccc(O)cc1)c1ccccc1 (stereo not shown) [Tropicamide p-hydroxybenzoate, tropicamide p-hydroxybenzoate]
mydriatic response (in words) ([4]; 5.5 μg): clearly mydriatic | Change in Pupil Diameter as a function of time ([4]; 5.5 ug applied, in 35 min): 4 mm | mydriatic potency compared to the parent drugs [4]: potent mydriatic agents | solubility [5]: low

CCN(Cc1ccncc1)C(=O)C(CO)c1ccccc1 (stereo not shown) [Tropicamide]
mydriatic response (in words) ([4]; 20 μg): weak response

COC(=O)Cc1ccc(O[C@@H]2O[C@H](C(=O)O)[C@@H](O)[C@H](O)[C@H]2O)cc1 [p-Hydroxyphenylacetic Acid Methyl Ester-O-β-D-Glucuronide]
Hydrolysis of Glucuronides ([3]; pH 5.0): 37 nmoles/hour/100 units
